One compound from patent US5624941A, “Pyrazole derivatives, method of preparing them and pharmaceutical compositions in which they are present” (Sanofi, priority 1992, dated 1997) can be followed below.

One series deals with rats. Description: test of the central memory in rats (Perio et al.). It is filed as in vivo. To be noted: subcutaneous administration.
A further series deals with T1, cannabinoid receptors (Mus musculus, UniProt P47746).
T1 construct: from tissue; host or cells: whole living mouse (in vivo hypothermia test)
T1 sequence (P47746 whole entry): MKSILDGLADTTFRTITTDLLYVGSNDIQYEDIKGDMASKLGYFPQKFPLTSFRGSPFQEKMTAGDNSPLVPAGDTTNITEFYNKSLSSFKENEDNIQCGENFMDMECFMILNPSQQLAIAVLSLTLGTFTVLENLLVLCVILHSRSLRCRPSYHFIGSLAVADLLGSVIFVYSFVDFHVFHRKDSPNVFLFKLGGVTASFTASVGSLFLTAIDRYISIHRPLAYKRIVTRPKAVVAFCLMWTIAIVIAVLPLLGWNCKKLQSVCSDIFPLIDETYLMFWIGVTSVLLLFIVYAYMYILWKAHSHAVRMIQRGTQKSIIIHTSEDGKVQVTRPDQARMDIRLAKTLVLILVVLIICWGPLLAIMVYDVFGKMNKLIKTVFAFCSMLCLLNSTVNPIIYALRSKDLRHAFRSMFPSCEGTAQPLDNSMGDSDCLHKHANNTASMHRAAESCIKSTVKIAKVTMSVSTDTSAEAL
Description: antagonism of hypothermia induced by WIN 55 212-2 in mice. In kind it is in vivo.

Series [1] is described as follows: penetration of the blood-brain barrier / central nervous system. In kind it is in vivo.

Take `Cc1c(C(=O)NN2CCCCC2)nn(-c2ccc(Cl)cc2Cl)c1-c1ccc(Cl)cc1` [N-piperidino-5-(4-chlorophenyl)-1-(2,4-dichlorophenyl)-4-methyl-pyrazole-3-carboxamide]: the “memory capacities of rats in the test of the central memory” value in the series with rats is listed as “improves the memory capacities of rats”. For the same compound, the “duration of action in the hypothermia test” value at cannabinoid receptors (mice, after oral administration of 3 mg/kg) lay in the range of 8 to 10 h. The “ED50, antagonism of WIN 55 212-2 induced hypothermia” value at cannabinoid receptors (mice, i.p.) is on record as 0.3 mg/kg; on cannabinoid receptors (mice, per os) it was 0.4 mg/kg. The “activity upon oral administration” value at cannabinoid receptors (oral) is “active upon oral administration”. Besides, in series [1] (confirmed by antagonism of agonist-induced hypothermia), the “penetration in the central nervous system” value is “good penetration”. Besides, the “penetration of the blood-brain barrier” value in series [1] (in vivo) is “penetrates the blood-brain barrier”. Moreover, the toxicity result in the series “toxicity” is reported as “compatible with its use as a psychotropic drug”.
